# Results: patent US8378104B2 (OSI Pharmaceuticals, LLC, priority 2010, dated 2013)
# Counter-ions that a name gives are not always drawn.
# Legend:
# pJNK in HCT-116 cells = test: Phospho-JNK (Thr183/Tyr185) Meso Scale ELISA assay, TNFα-stimulated HCT-116 cells; assay type: cell-based; conditions: Homo sapiens, read-out: mean HCT-116 pJNK ELISA IC50 (Col. B)
# How it was run: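 HCT-116 cells in 1% FCS medium were pretreated with compound for 4 hrs at 37° C, then stimulated with TNFα at 10 ng/mL final for 10 minutes. Lysates were taken in ice-cold lysis buffer with phosphatase and protease inhibitors, and phospho-JNK (Thr183/Tyr185) was measured by Meso Scale ELISA.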
# TAK1-TAB1 fusion protein = molecular target: T1, TAK1-TAB1 fusion protein (Homo sapiens, UniProt O43318); test: TAK1 biochemical assay (AlphaScreen, GST-MAP2K7 substrate); conditions: TAK1-TAB1 fusion protein, GST-MAP2K7 substrate; read-out: mean TAK1 IC50 (Col. A)
# T1 construct: purchased Carna
# T1 sequence (O43318 with tags, fused parts or gaps limits assumed): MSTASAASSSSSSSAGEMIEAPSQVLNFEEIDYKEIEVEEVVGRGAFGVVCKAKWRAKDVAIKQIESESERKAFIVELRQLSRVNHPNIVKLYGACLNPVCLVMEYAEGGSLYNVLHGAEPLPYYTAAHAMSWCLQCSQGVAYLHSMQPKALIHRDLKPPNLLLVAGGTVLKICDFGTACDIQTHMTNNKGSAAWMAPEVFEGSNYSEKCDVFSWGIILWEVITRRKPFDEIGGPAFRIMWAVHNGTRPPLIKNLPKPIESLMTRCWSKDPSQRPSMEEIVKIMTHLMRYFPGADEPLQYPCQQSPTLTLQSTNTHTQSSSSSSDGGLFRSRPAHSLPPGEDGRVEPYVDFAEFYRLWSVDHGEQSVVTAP
# p-p38 in HCT-116 cells = test: Phospho-p38 Meso Scale ELISA assay, TNFα-stimulated HCT-116 cells; assay type: cell-based; conditions: Homo sapiens, read-out: mean HCT-116 p-p38 ELISA IC50 (Col. C)
# Method: Detailed below are ELISA assays for pJNK and p38, and a TAK1 biochemical assay. […] In Table 1, Col.
# • 1. Plate HCT-116 cells at 25,000 per well in 100 uL in 96 well clear dishes in normal growth medium. Day 2: • 1. Aspirate medium and replace with 90 μl reduced serum growth medium (1% FCS), incubate for 2 hours at 37° C. • 2. Make drugs at 10× in reduced serum medium and add 10 uL per well. • 3. Incubate at 37° C. for 4 hrs. • 4. Bring capture plates to room temperature. • 5. Block with 150 μl Blocking Solution (provided with kit) (600 mg Blocker A into 20 mL 1× Wash Buffer per plate) at room temperature with shaking. • 6. Wash plates 4× with 200 μl 1× wash buffer (10× provided with kit) before transferring lysates. • 7. Dilute TNFα to […] in reduced serum medium (this makes a 10× working stock). • 8. Add 10 μl TNFα to all wells except negative control wells, final concentration is 10 ng/mL. • 9. Incubate at 37° C. for 10 minutes. • 10. Remove medium by flicking into sink • 11. Wash cells with 100 uL ice cold PBS. • 12. Remove PBS by flicking into sink and patting on paper towels. • 13. Lyse cells in 50 μl ice cold 1× Complete Lysis Buffer plus Phosphatase and Protease inhibitors (all provided with kit) (10 mL Tris Lysis Buffer+200 μl Protease inhibitor solution+100 μl Phosphatase inhibitor I+100 μl Phosphatase inhibitor II). • 14. Incubate with shaking at 4° C. for 30 minutes. • 15. Transfer 45 μl to capture plate, cover with adhesive cover, and incubate at 4° C. over night with shaking. • Day 3: • 1. Wash plates 4× with 200 μl 1× wash buffer (10× provided with kit). • 2. […] Incubate at room temperature with shaking for 1 hour. • 4. Wash 4× with 200 μl 1× Wash Buffer. • 5. […] Read on Sector Imager. Phospho-p38 Meso Scale ELISA Assay Day 1: • 1. Plate HCT-116 cells at 25,000 per well in 100 uL in 96 well clear dishes in normal growth medium. zday 2: • 1. Aspirate medium and replace with 90 μl reduced serum growth medium (1% FCS), incubate for 2 hours at 37° C. • 2. Make drugs at 10× in reduced serum medium and add 10 uL per well. • 3. Incubate at 37° C. for 4 hrs. • 4. Bring capture plates to room temperature. • 5. Block with 150 μl Blocking Solution (provided with kit) (600 mg Blocker A into 20 mL 1× Wash Buffer per plate) at room temperature with shaking. • 6. Wash plates 4× with 200 μl 1× wash buffer (10× provided with kit) before transferring lysates. • 7. Dilute TNFα to […] in reduced serum medium (this makes a 10× working stock). • 8. Add 10 μl TNFα to all wells except negative control wells, final concentration is 10 ng/mL. • 9. Incubate at 37° C. for 10 minutes. • 10. Remove medium by flicking into sink • 11. Wash cells with 100 uL ice cold PBS. • 12. Remove PBS by flicking into sink and patting on paper towels. • 13. Lyse cells in 50 μl ice cold 1× Complete Lysis Buffer plus phosphatase and protease inhibitors (all provided with kit) (10 mL Tris Lysis Buffer+200 μl Protease inhibitor solution+100 μl Phosphatase inhibitor I+100 μl Phosphatase inhibitor II). • 14. Incubate with shaking at 4° C. for 30 minutes. • 15. Dilute lysates before transferring to capture plate with 100 μl Complete p38 Lysate • Dilution Buffer (provided with kit) (10 mL of Diluent 20±200 μl Protease inhibitor solution+100 μl Phosphatase inhibitor I+100 μl Phosphatase inhibitor II). • 16. Transfer 50 μl of diluted lysates to capture plate, cover with adhesive cover, and incubate at 4° C. over night with shaking. Day 3: • 1. Wash plates 4× with 200 μl 1× wash buffer (10× provided with kit). • 2. […] Incubate at room temperature with shaking for 1 hour. • 4. Wash 4× with 200 μl 1× Wash Buffer. • 5. […] Read on Sector Imager. TAK1 Biochemical Assay
IC50 (pJNK in HCT-116 cells) [nM],IC50 (TAK1-TAB1 fusion protein) [nM],IC50 (p-p38 in HCT-116 cells) [nM],Structure (SMILES)
100 to 1000,100 to 1000,100 to 1000,"CC(=O)N1CCC(n2cc(-c3cnc(N)c4oc(-c5cccc6c5OC(F)(F)O6)cc34)cn2)CC1 [Example 191, 1-(4-{4-[7-amino-2-(2,2-difluoro-1,3-benzodioxol-4-yl)furo[2,3-c]pyridin-4-yl]-1H-pyrazol-1-yl}piperidin-1-yl)ethanone]"
100 to 1000,1000 to 10000,1000 to 10000,"COc1cc2c(-c3cc4c(-c5cnn(C6CCN(C(C)=O)CC6)c5)cnc(N)c4o3)csc2cn1 [Example 243, 1-(4-{4-[7-amino-2-(5-methoxythieno[2,3-c]pyridin-3-yl)furo[2,3-c]pyridin-4-yl]-1H-pyrazol-1-yl}piperidin-1-yl)ethanone]"
100 to 1000,1000 to 10000,1000 to 10000,"Cc1nn(CC(C)(C)O)cc1-c1cnc(N)c2oc(-c3csc4cnccc34)cc12 [Example 289, 1-[4-(7-amino-2-thieno[2,3-c]pyridin-3-yl-furo[2,3-c]pyridin-4-yl)-3-methyl-pyrazol-1-yl]-2-methyl-propan-2-ol]"
< 100,100 to 1000,100 to 1000,"Nc1ncc(-c2cnn(C3CCN(C(=O)C4CCC4)CC3)c2)c2cc(-c3cccc4cnccc34)oc12 [Example 53, (4-{4-[7-amino-2-(isoquinolin-5-yl)furo[2,3-c]pyridin-4-yl]-1H-pyrazol-1-yl}piperidin-1-yl)(cyclobutyl)methanone]"
1000 to 10000,< 100,100 to 1000,"CNc1ncc(-c2cnn(C3CCN(C(C)=O)CC3)c2)c2cc(-c3c[nH]c4cnccc34)oc12 [Example 280, 1-(4-{4-[7-(methylamino)-2-(1H-pyrrolo[2,3-c]pyridin-3-yl)furo[2,3-c]pyridin-4-yl]-1H-pyrazol-1-yl}piperidin-1-yl)ethanone trifluoroacetic acid salt]"
100 to 1000,100 to 1000,100 to 1000,"CCN1CCC(n2cc(-c3cnc(N)c4oc(-c5cccc6cnccc56)cc34)cn2)CC1 [Example 78, 4-[1-(1-ethylpiperidin-4-yl)-1H-pyrazol-4-yl]-2-(isoquinolin-5-yl)furo[2,3-c]pyridin-7-amine]"
100 to 1000,100 to 1000,100 to 1000,"CC(C)N1CCC(n2cc(-c3cnc(N)c4oc(-c5cccc6cnccc56)cc34)cn2)CC1 [Example 79, 2-(isoquinolin-5-yl)-4-{1-[1-(propan-2-yl)piperidin-4-yl]-1H-pyrazol-4-yl]furo[2,3-c]pyridin-7-amine]"
100 to 1000,< 100,100 to 1000,"CC(=O)N1CCC(n2cc(-c3cnc(N)c4oc(-c5csc6cncc(F)c56)cc34)cn2)CC1 [Example 254, 1-(4-{4-[7-amino-2-(4-fluorothieno[2,3-c]pyridin-3-yl)furo[2,3-c]pyridin-4-yl]-1H-pyrazol-1-yl}piperidin-1-yl)ethanone trifluoroacetic Acid Salt]"
100 to 1000,100 to 1000,100 to 1000,"CC(=O)N1CCC(n2cc(-c3cnc(N)c4oc(-c5csc6ccccc56)cc34)cn2)CC1 [Example 219, 1-(4-{4-[7-amino-2-(1-benzothiophen-3-yl)furo[2,3-c]pyridin-4-yl]-1H-pyrazol-1-yl}piperidin-1-yl)ethanone]"
100 to 1000,1000 to 10000,100 to 1000,"CC(=O)N1CCC(n2cc(-c3cnc(N)c4oc(-c5ccc6[nH]ccc6c5)cc34)cn2)CC1 [Example 92, 1-(4-{4-[7-amino-2-(1H-indol-5-yl)furo[2,3-c]pyridin-4-yl]-1H-pyrazol-1-yl}piperidin-1-yl)ethanone]"
100 to 1000,100 to 1000,1000 to 10000,"CC1(C)OC[C@@H](Cn2cc(-c3cnc(N)c4oc(-c5csc6cnccc56)cc34)cn2)O1 [Example 297, 4-[1-((R)-2,2-dimethyl-[1,3]dioxolan-4-ylmethyl)-1H-pyrazol-4-yl]-2-thieno[2,3-c]pyridin-3-yl-furo[2,3-c]pyridin-7-ylamine]"
100 to 1000,1000 to 10000,100 to 1000,"CC(=O)N1CCC(n2cc(-c3cnc(N)c4oc(-c5ccc6occc6c5)cc34)cn2)CC1 [Example 114, 1-(4-{4-[7-amino-2-(1-benzofuran-5-yl)furo[2,3-c]pyridin-4-yl]-1H-pyrazol-1-yl)piperidin-1-yl]ethanone]"
1000 to 10000,> 10000,1000 to 10000,"CSc1ccc(-c2cc3c(-c4cnn(C5CCN(C(C)=O)CC5)c4)cnc(N)c3o2)cc1 [Example 113, 1-[4-(4-{7-amino-2-[4-(methylsulfanyl)phenyl]furo[2,3-c]pyridin-4-yl}-1H-pyrazol-1-yl)piperidin-1-yl]ethanone]"
< 100,< 100,100 to 1000,"Nc1ncc(-c2cnn([C@H]3CC[C@H](O)CC3)c2)c2cc(-c3cccc4cnsc34)oc12 [Example 234, trans-4-{4-[7-amino-2-(1,2-benzothiazol-7-yl)furo[2,3-c]pyridin-4-yl]-1H-pyrazol-1-yl}cyclohexanol]"
100 to 1000,100 to 1000,1000 to 10000,"CC(=O)N1CCC(n2cc(-c3cnc(N)c4oc(-c5scc6c5OCCO6)cc34)cn2)CC1 [Example 109, 1-(4-{4-[7-amino-2-(2,3-dihydrothieno[3,4-b][1,4]dioxin-5-yl)furo[2,3-c]pyridin-4-yl]-1H-pyrazol-1-yl}piperidin-1-yl)ethanone]"
100 to 1000,100 to 1000,100 to 1000,"CSc1ccccc1-c1cc2c(-c3cnn(C4CCN(C(C)=O)CC4)c3)cnc(N)c2o1 [Example 216, 1-[4-(4-{7-amino-2-[2-(methylsulfanyl)phenyl]furo[2,3-c]pyridin-4-yl}-1H-pyrazol-1-yl)piperidin-1-yl]ethanone]"
100 to 1000,100 to 1000,100 to 1000,CCSc1ccccc1-c1cc2c(-c3cnn(C4CCN(C(C)=O)CC4)c3)cnc(N)c2o1 [Example 217]
< 100,100 to 1000,< 100,"CC(C)C(=O)N1CCC(n2cc(-c3cnc(N)c4oc(-c5cccc6cnccc56)cc34)cn2)CC1 [Example 51, 1-(4-{4-[7-amino-2-(isoquinolin-5-yl)furo[2,3-c]pyridin-4-yl]-1H-pyrazol-1-yl}piperidin-1-yl)-2-methylpropan-1-one]"
